{"source": "patent US20150322083A1", "about": "“(THIENO[2,3-b][1,5]BENZOXAZEPIN-4-YL)PIPERAZIN-1-YL COMPOUNDS AS SELECTIVE 5-HT2A INVERSE AGONISTS” (Eli Lilly and Company, priority 2014, published 2015)", "key": {"5-HT6": {"molecular_target": "5-HT6 (Homo sapiens, UniProt P50406)", "sequence (P50406 whole entry, species assumed)": "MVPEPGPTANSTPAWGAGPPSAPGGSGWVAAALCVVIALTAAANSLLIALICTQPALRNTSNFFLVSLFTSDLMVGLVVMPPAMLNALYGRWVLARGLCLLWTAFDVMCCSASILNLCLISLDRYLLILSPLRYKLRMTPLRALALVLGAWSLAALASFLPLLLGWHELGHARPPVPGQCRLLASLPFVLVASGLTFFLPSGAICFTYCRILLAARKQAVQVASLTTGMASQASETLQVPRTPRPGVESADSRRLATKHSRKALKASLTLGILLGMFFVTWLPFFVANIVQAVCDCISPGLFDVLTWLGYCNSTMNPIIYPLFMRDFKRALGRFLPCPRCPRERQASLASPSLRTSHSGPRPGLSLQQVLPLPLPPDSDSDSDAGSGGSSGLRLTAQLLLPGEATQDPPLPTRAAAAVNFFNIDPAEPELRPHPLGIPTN", "test": "5-HT6 binding", "procedure": "(§1) Curves are evaluated using a 4-parameter logistic nonlinear equation to obtain the concentration of competitor causing 50% inhibition of radioligand binding (IC50). Equilibrium dissociation constants (Ki) are calculated according to the equation Ki=IC50/(1+L/Kd), where L equals the concentration of radioligand used in the experiment and Kd equals the equilibrium dissociation constant of the radioligand for the receptor, determined from standard saturation analysis or homologous competition experiments. Reported values for Ki, where n values are indicated, are shown as geometric mean±the standard error of the mean (SEM), with the number of replicate determinations indicated by n. Geometric means are calculated by the equation GeoMean=10̂(Average(log Ki 1+log Ki 2+ . . . log Ki n)/[…]).\n(§2) Further, the compounds of the invention may be tested in binding assays and functional activity assays by well known methods for other physiologically important receptors such as, but not limited to, the hERG channel, other serotonin receptors (specifically 5-HT1B receptors, lack of agonist activity at 5-HT2B receptors, 5-HT2C, 5-HT5, 5-HT6, and 5-HT7 receptors), dopaminergic receptors (specifically D1, D2, and D3), H1 receptors, GABAA receptors, adrenergic receptors and monoamine transporters."}, "Adrenergic alpha2C": {"molecular_target": "Adrenergic alpha2C (Homo sapiens, UniProt P18825)", "test": "Adrenergic alpha2C binding", "procedure": "as §1, §2"}, "5-HT1B receptors": {"molecular_target": "5-HT1B receptors (Homo sapiens, UniProt P28222)", "sequence (P28222 whole entry)": "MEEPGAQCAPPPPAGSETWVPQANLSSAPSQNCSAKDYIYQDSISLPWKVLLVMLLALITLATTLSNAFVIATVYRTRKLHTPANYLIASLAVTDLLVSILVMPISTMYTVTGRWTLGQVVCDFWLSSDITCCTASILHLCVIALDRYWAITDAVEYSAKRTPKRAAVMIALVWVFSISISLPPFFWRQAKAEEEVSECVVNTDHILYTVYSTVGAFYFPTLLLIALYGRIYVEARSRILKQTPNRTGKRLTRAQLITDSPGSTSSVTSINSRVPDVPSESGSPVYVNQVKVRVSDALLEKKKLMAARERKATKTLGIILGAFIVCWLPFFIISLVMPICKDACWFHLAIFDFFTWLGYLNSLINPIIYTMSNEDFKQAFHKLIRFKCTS", "test": "5-HT1B binding", "procedure": "as §1, §2"}, "Adrenergic alpha2A": {"molecular_target": "Adrenergic alpha2A (Homo sapiens, UniProt P08913)", "sequence (P08913 whole entry)": "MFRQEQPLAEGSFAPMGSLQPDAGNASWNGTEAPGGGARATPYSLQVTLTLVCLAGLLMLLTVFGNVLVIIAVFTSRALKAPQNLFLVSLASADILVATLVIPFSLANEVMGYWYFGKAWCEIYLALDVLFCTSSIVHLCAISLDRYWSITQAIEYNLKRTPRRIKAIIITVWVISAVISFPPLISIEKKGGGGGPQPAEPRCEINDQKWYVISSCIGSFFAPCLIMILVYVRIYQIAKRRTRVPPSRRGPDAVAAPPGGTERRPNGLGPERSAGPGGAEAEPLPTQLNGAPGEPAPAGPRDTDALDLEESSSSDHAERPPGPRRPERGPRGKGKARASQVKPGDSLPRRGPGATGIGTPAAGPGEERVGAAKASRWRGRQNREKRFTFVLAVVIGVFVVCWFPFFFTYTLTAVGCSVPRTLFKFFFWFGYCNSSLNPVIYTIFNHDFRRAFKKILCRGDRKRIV", "test": "Adrenergic alpha2A binding", "procedure": "as §1, §2"}, "Dopamine Transporter": {"molecular_target": "Dopamine Transporter (Homo sapiens, UniProt Q01959)", "sequence (Q01959 whole entry)": "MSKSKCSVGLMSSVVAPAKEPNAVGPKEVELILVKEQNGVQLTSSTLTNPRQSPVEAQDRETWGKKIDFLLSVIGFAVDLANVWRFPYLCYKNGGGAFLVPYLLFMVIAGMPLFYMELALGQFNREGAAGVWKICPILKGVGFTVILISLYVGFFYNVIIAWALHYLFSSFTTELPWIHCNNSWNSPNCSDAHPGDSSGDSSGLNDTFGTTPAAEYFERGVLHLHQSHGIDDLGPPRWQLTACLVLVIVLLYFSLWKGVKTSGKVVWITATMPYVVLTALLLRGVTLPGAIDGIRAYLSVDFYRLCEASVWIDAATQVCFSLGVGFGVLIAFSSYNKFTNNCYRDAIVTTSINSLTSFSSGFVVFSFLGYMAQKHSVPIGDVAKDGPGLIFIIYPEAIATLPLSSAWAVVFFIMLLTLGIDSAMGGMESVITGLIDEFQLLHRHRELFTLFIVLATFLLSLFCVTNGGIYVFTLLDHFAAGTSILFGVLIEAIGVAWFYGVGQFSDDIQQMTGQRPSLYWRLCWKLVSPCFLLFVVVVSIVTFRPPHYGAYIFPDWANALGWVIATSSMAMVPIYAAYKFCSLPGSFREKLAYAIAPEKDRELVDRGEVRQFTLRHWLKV", "test": "Dopamine transporter binding", "procedure": "as §1, §2"}, "Adrenergic alpha1A": {"molecular_target": "Adrenergic alpha1A (Homo sapiens, UniProt P35348)", "test": "Adrenergic alpha1A binding", "procedure": "as §1, §2"}, "[1]": {"molecular_target": "T1, recombinant 5-HT2C receptors (human) (Homo sapiens, UniProt P28335)", "T1 construct": "expressed in transfected cells", "T1 sequence (P28335 33-458)": "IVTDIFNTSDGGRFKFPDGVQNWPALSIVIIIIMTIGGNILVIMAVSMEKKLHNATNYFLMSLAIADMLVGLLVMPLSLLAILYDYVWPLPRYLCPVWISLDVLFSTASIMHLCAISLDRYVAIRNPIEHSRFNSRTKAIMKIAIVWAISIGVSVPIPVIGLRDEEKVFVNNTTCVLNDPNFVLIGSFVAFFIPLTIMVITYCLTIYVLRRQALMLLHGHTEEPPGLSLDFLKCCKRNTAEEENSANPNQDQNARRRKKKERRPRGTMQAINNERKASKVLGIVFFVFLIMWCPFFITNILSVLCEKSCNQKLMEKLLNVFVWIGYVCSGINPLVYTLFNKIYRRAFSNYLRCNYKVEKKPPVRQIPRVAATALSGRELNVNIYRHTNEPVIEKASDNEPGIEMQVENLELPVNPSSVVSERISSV", "test": "5-HT2C competition binding assay ([125I]-(±)DOI, SPA)", "procedure": "[^125I]-(±)DOI binding experiments are carried out in SPA 96-well format. Membranes used in this assay are prepared from AV-12 cells stably expressing recombinant 5-HT2C receptors (human). The incubation is initiated by the addition of a mixture of WGA PVT SPA beads (0.5 mg/well, Perkin Elmer (MA, USA), RPNQ0001) and 2.5 μg membranes to assay buffer (50 mM Tris-HCl, 10 mM MgCl2, 0.5 mM EDTA, 10 μM pargyline, 0.1% ascorbic acid, pH7.4) containing 0.2 nM [[^125I]-(±)DOI and varying concentrations of the test compound (10 point concentration response curves). Non-specific binding is determined in the presence of 20 μM 1-(1-naphthyl)piperazine. Samples are incubated for 4 hr. at room temperature (22° C.) and then read in a microplate scintillation counter.\nCurves are evaluated using a 4-parameter logistic nonlinear equation to obtain the concentration of competitor causing 50% inhibition of radioligand binding (IC50). Equilibrium dissociation constants (Ki) are calculated according to the equation Ki=IC50/(1+L/Kd), where L equals the concentration of radioligand used in the experiment and Kd equals the equilibrium dissociation constant of the radioligand for the receptor, determined from standard saturation analysis or homologous competition experiments. […]"}, "H1 receptors": {"molecular_target": "H1 receptors (Homo sapiens, UniProt P35367)", "test": "H1 receptor binding", "procedure": "as §1, §2"}, "Adrenergic alpha1B": {"molecular_target": "Adrenergic alpha1B (Homo sapiens, UniProt P35368)", "sequence (P35368 whole entry)": "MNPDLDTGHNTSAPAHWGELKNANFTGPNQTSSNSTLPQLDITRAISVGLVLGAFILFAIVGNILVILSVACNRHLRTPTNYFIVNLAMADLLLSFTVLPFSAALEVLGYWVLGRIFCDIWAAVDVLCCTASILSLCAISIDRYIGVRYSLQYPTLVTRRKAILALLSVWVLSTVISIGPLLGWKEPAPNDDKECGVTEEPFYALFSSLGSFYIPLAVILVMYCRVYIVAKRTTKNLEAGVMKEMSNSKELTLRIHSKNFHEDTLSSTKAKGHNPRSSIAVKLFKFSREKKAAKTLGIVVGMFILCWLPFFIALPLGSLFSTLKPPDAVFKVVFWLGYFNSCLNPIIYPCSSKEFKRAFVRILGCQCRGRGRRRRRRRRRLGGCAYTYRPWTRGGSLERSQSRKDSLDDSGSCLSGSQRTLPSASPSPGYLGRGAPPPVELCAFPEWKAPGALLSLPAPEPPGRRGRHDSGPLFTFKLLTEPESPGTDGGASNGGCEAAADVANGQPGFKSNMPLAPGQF", "test": "Adrenergic alpha1B binding", "procedure": "as §1, §2"}, "[2]": {"tested_on": "DOI induced headshake response", "test": "Inhibition of DOI induced headshake activity", "assay_type": "in vivo, male C57BL/6J mice", "conditions": "mice, PO, 60 min. pre-treatment, DOI 3 mg/kg subcutaneously", "procedure": "(see for example Bartoszyk G D, van Amsterdam C, Böttcher H, Seyfried C A. EMD 281014, a new selective serotonin 5-HT2A receptor antagonist. Eur J Pharmacol. 2003 473: 229-230.) This assay has also be used as an indicator of anti-psychotic therapeutic potential. Briefly, male C57BL/6J mice (20-25 g, Charles River) are housed in standard housing conditions (32 mice in a large IVC cage, 07.00 to 19.00 light phase, constant temperature (19-23° C.) and humidity (50%+/−10), ad lib food and water). Mice received either vehicle (0.25% Methyl cellulose), DOI (3 mg/kg in saline) or test compound at doses up to 10 mg/kg PO plus DOI (3 mg/kg in saline). Test compounds are individually evaluated at 4 doses with n=4 for each dose, together with vehicle and DOI+vehicle (n=8). After a test compound pre-treatment time of 60 min. the mice receive either vehicle (saline) or 3 mg/kg DOI dosed subcutaneously, and are then placed into clear perspex observation chambers. […] The data is analyzed using an ANOVA and post-hoc Dunnet's Test. The compounds of Example 1 and Example 2 are tested essentially as described and are found to inhibit the DOI induced headshake response with an approximate EC50 of 0.5 mg/kg for both compounds."}, "hERG channel": {"molecular_target": "hERG channel (Homo sapiens, UniProt Q12809)", "sequence (Q12809 whole entry)": "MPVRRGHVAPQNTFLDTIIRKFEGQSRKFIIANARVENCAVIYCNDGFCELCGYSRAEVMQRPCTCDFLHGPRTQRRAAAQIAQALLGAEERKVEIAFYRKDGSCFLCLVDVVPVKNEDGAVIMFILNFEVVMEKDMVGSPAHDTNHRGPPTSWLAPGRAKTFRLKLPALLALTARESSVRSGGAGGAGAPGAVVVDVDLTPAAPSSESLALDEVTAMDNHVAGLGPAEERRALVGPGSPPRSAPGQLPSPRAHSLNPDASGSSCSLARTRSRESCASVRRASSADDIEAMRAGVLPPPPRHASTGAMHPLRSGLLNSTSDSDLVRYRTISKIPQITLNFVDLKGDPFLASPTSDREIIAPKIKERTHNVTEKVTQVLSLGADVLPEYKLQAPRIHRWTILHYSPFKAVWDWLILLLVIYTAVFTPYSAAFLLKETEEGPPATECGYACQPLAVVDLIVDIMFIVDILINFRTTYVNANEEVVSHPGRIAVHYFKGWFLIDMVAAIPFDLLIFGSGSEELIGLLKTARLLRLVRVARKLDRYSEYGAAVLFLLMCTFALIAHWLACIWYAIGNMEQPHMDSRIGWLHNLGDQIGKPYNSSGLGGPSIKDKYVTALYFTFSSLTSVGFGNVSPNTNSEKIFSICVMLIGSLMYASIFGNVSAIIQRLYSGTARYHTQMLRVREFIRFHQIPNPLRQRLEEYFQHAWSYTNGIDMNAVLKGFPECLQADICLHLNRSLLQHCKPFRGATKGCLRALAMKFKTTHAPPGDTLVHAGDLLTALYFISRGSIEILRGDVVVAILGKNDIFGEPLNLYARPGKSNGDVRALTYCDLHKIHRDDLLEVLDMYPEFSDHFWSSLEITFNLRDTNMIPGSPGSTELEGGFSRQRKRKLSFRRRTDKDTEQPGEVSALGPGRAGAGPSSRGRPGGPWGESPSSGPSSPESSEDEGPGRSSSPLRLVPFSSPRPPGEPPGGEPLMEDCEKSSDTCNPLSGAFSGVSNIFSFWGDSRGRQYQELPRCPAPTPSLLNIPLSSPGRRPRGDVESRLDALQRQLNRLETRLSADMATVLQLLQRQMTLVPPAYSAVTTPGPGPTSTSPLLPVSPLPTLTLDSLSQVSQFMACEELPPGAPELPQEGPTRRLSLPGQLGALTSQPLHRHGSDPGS", "test": "hERG channel assay (selectivity data)", "source_text": "as §2"}, "Serotonin Transporter": {"molecular_target": "Serotonin Transporter (Homo sapiens, UniProt P31645)", "test": "Serotonin transporter binding", "procedure": "as §1, §2"}, "Dopamine D1": {"molecular_target": "Dopamine D1 (Homo sapiens, UniProt P21728)", "sequence (P21728 whole entry)": "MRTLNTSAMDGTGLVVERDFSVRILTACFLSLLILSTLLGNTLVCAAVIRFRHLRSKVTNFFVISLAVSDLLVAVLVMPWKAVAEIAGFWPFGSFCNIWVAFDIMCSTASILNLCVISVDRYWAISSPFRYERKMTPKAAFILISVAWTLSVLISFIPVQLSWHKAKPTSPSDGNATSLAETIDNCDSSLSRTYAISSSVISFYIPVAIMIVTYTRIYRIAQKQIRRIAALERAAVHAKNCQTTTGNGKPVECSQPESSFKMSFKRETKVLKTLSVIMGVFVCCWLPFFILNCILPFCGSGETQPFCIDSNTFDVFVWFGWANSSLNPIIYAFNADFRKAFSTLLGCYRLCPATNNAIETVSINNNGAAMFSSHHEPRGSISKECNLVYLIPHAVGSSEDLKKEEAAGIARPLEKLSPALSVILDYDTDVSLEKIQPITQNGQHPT", "test": "Dopamine D1 binding", "procedure": "as §1, §2"}, "Dopamine D2": {"molecular_target": "Dopamine D2 (Homo sapiens, UniProt P14416)", "sequence (P14416 whole entry)": "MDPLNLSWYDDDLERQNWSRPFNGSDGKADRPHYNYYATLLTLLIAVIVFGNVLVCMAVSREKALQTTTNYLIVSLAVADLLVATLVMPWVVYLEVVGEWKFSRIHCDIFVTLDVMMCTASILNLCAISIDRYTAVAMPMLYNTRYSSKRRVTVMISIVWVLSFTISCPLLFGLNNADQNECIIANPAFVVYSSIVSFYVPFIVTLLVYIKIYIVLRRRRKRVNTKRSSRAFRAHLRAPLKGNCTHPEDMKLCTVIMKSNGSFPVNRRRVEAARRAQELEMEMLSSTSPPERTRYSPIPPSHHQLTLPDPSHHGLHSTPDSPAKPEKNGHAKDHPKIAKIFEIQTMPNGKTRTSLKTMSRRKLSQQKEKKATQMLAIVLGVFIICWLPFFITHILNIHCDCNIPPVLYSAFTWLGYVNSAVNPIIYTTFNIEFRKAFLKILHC", "test": "Dopamine D2 binding", "procedure": "as §1, §2"}}, "data": [{"smiles": "Cc1ccc2c(c1)Oc1sc(SC(C)C)cc1C(N1CCN(CC(C)(C)C(=O)O)CC1)=N2", "note": "[Example 1, 3-[4-(2-isopropylsulfanyl-8-methyl-thieno[2,3-b][1,5]benzoxazepin-4-yl)piperazin-1-yl]-2,2-dimethyl-propanoic acid]", "values": [{"measurement": "Ki", "setting": "5-HT6", "result": 1130, "unit": "nM"}, {"measurement": "Ki", "setting": "Adrenergic alpha2C", "result": "> 6430", "unit": "nM"}, {"measurement": "Ki", "setting": "5-HT1B receptors", "result": "> 9590", "unit": "nM"}, {"measurement": "Ki", "setting": "Adrenergic alpha2A", "result": "> 1610", "unit": "nM"}, {"measurement": "Ki", "setting": "Dopamine Transporter", "result": "> 866", "unit": "nM"}, {"measurement": "Ki", "setting": "Adrenergic alpha1A", "result": 4450, "unit": "nM"}, {"measurement": "Ki", "setting": "[1]", "result": 359, "unit": "nM"}, {"measurement": "Ki", "setting": "H1 receptors", "result": 599, "unit": "nM"}, {"measurement": "Ki", "setting": "Adrenergic alpha1B", "result": "> 15800", "unit": "nM"}, {"measurement": "approximate EC50, inhibition of DOI induced headshake response", "setting": "[2]", "result": "~0.5", "unit": "mg/kg"}, {"measurement": "hERG Channel", "setting": "hERG channel", "result": ">100", "unit": "µM"}, {"measurement": "Ki", "setting": "Serotonin Transporter", "result": "> 521", "unit": "nM"}, {"measurement": "Ki", "setting": "Dopamine D1", "result": 2640, "unit": "nM"}, {"measurement": "Ki", "setting": "Dopamine D2", "result": "> 7660", "unit": "nM"}]}]}
